Patent US20050197372A1 (priority 2002, published 2005)

Columns and labels:
Type in all cases: cell-based, human
[1] = tested on: platelet/endothelial cell adhesion molecule-1 (PECAM-1, CD31); assay: Whole blood flow cytometry, PECAM-1 expression; conditions: for Expression of platelet/endothelial cell adhesion molecule-1 (PECAM-1, CD31): baseline 69.2 ± 10.3
Description: (§1) None of them received aspirin or any other anti-platelet agents. All subjects underwent blood sampling after at least 30 minutes of rest and 2 or more hours of fasting. Blood was drawn between 8 and 10 a.m. in order to avoid any diurnal influence and sampled from an antecubital vein using a 21-gauge butterfly needle containing 3.8% sodium citrate (1:9 volume) after having discarded the first 1.5 ml of free running blood. Eleven Vacutainer tubes (4.5 ml) were collected for a total of 49 ml of whole blood-citrate mixture from each study participant. One tube was kept as an internal control and was incubated with buffer solution. […] To avoid possible observer bias, blood samples were coded and blinded. Sampling procedures, and platelet studies were performed by individuals unaware of the protocol.
(§2) The expression of platelet receptors was determined by using the following monoclonal antibodies: CD31 (platelet endothelial cell adhesion molecule (PECAM-1), CD41 (glycoprotein [GP] IIb/IIIa, (IIb (3), CD42b (GP Ib), CD 51/CD61 ((v (3, or vitronectin receptor), CD62p (P-selectin), CD107a (lysosome associated membrane protein-1; LAMP-1), CD 107b (LAMP-2), CD151 (platelet/endothelial tetraspan antigen-3; PETA-3), and PAC-1 for fibrinogen-platelet (PharMingen, San Diego, Calif.). Platelet-leukocyte interactions were assessed by using dual antibodies for a pan-platelet marker (CD 151), together with CD14, a monocyte/macrophage marker. The blood-citrate mixture (50 μl) was diluted with 450 μl Tris buffered saline (TBS) (10 mmol/L Tris, 0.15 mol/L sodium chloride) and mixed by gently inverting an Eppendorf tube 2 times. Five μl of the corresponding antibodies were then added to each solution and the samples were incubated for 30 minutes. After incubation, 400 μl of 2% buffered paraformaldehyde was added for fixation. The samples were analyzed by a Becton Dickinson FACScan flow cytometer set up to measure fluorescent light scatter, as described in Gurbel P A, et al., J Am Coll Cardiol. 1998; 31: 1466-1473. The data were collected in list mode files and then analyzed. P selectin was expressed as percent positive cells as described in Gurbel P A, et al, Am Heart J 2000; 139: 320-328. Other antigens were expressed as log mean fluorescence intensity.

[2] = tested on: Glycoprotein IIb/IIIa activity (fibrinogen binding, PAC-1); assay: Whole blood flow cytometry, GP IIb/IIIa activity (PAC-1); conditions: for Glycoprotein IIb/IIIa activity (fibrinogen binding, PAC-1): baseline 10.3 ± 2.8
Description: as §1, §2

[3] = tested on: platelet/endothelial tetraspan antigen -3 (PETA-3, CD151); assay: Whole blood flow cytometry, PETA-3 expression; conditions: for Expression of platelet/endothelial tetraspan antigen -3 (PETA-3, CD151): baseline 88.7 ± 24.2
Description: as §1, §2

[4] = tested on: platelets (agglutination with fibrinogen-coated beads); assay: Ultegra rapid platelet-function assay (RPFA-ASA); conditions: baseline 159 ± 27
Description: as §1
A rapid platelet-function assay cartridge test (RPFA-ASA, Ultegra® Accumetrics, Inc., San Diego, Calif., USA), using polystyrene beads coated cartridges with lyophilized human fibrinogen-coated microparticles, and propyl gallat served as an agonist. The whole blood citrate mixture was added to the cartridge, and agglutination between platelets and coated beads was recorded. The data mirrored turbidometric platelet aggregation and reflected the degree of platelet prostaglandin blockade. Smith J W, et al., Circulation 1999; 99: 620-625. Ultegra® assays were performed in duplicate. An electronic quality control test was performed on each instrument every day of use prior to performing any subject samples.

[5] = tested on: lysosome associated membrane protein -1 (LAMP-1, CD107a); assay: Whole blood flow cytometry, LAMP-1 expression; conditions: baseline 8.7 ± 3.2
Description: as §1, §2

[6] = tested on: platelet glycoprotein IIb/IIIa antigen (GPIIb, CD41); assay: Whole blood flow cytometry, GP IIb/IIIa antigen expression; conditions: for Expression of platelet glycoprotein IIb/IIIa antigen (GPIIb, CD41): baseline 521.8 ± 98.2
Description: as §1, §2

[7] = tested on: shear-induced platelet aggregation; assay: PFA-100 closure time, epinephrine/collagen cartridge; conditions: baseline 201 ± 22
Description: as §1
The platelet function analyzer (PFA-100′, Dade Behring, Deerfield, Ill.) is a device that simulates changes in primary hemostasis after injury to a small vessel under flow conditions. Kundu S K, et al., Semin Thromb Hemost 1995; 21(Suppl 2): 106-112. The time required to obtain occlusion of the aperture was digitally recorded as a measure of shear-induced platelet aggregation. Closure time determinations were performed in duplicate.

[8] = tested on: platelet vitronectin receptor (CD51/CD61); assay: Whole blood flow cytometry, vitronectin receptor expression; conditions: whole blood flow cytometry
Description: as §1, §2

[9] = tested on: glycoprotein Ib (GPIb, CD42b); assay: Whole blood flow cytometry, GP Ib expression; conditions: for Expression of glycoprotein Ib (GPIb, CD42b): baseline 246.4 ± 26.7
Description: as §1, §2

[10] = tested on: platelet-leukocyte microparticles (CD151 + CD14); assay: Whole blood flow cytometry, platelet-leukocyte microparticles; conditions: for Formation of platelet-leukocyte microparticles (CD151 + CD14): baseline 92.2 ± 19.3
Description: as §1, §2

CCCCC(=O)N(Cc1ccc(-c2ccccc2-c2nnn[nH]2)cc1)[C@H](C(=O)O)C(C)C [Valsartan, (S)-N-(1-carboxy-2-methyl-prop-1-yl)-N-pentanoyl-N-[2;(1H-tetrazol-5-yl)biphenyl-4-yl-methyl]amine, reference compound]
Expression of platelet/endothelial cell adhesion molecule-1 (PECAM-1, CD31) ([1]; drug 10 nM): 71.8 ± 11.9 log MFI | Expression of platelet/endothelial cell adhesion molecule-1 (PECAM-1, CD31) ([1]; drug 100 nM): 70.6 ± 12.6 log MFI | Expression of platelet/endothelial cell adhesion molecule-1 (PECAM-1, CD31) ([1]; drug 1 μM): 74.5 ± 16.2 log MFI | Expression of platelet/endothelial cell adhesion molecule-1 (PECAM-1, CD31) ([1]; drug 10 μM): 68.2 ± 16.2 log MFI | Expression of platelet/endothelial cell adhesion molecule-1 (PECAM-1, CD31) ([1]; drug 100 μM): 70.6 ± 15.8 log MFI | Effect on PECAM-1 (CD31) (in words) ([1]; whole blood flow cytometry): not associated with any effect | Glycoprotein IIb/IIIa activity (fibrinogen binding, PAC-1) ([2]; drug 10 nM): 9.3 ± 2.87 log MFI | Glycoprotein IIb/IIIa activity (fibrinogen binding, PAC-1) ([2]; drug 100 nM): 11.2 ± 3.4 log MFI | Glycoprotein IIb/IIIa activity (fibrinogen binding, PAC-1) ([2]; drug 1 μM): 7.0 ± 2.9 log MFI | Glycoprotein IIb/IIIa activity (fibrinogen binding, PAC-1) ([2]; drug 10 μM): 6.9 ± 2.7 log MFI | Glycoprotein IIb/IIIa activity (fibrinogen binding, PAC-1) ([2]; drug 100 μM): 9.9 ± 3.1 log MFI | Effect on fibrinogen binding (PAC-1) (in words) ([2]; whole blood flow cytometry): slightly reduced | Expression of platelet/endothelial tetraspan antigen -3 (PETA-3, CD151) ([3]; drug 10 nM): 84.1 ± 19.7 log MFI | Expression of platelet/endothelial tetraspan antigen -3 (PETA-3, CD151) ([3]; drug 100 nM): 91.5 ± 23.4 log MFI | Expression of platelet/endothelial tetraspan antigen -3 (PETA-3, CD151) ([3]; drug 1 μM): 81.6 ± 20.1 log MFI | Expression of platelet/endothelial tetraspan antigen -3 (PETA-3, CD151) ([3]; drug 10 μM): 87.9 ± 18.3 log MFI | Expression of platelet/endothelial tetraspan antigen -3 (PETA-3, CD151) ([3]; drug 100 μM): 91.7 ± 22.1 log MFI | Effect on PETA-3 (CD151) (in words) ([3]; whole blood flow cytometry): not associated with any effect | Ultegra Analyzer ([4]; drug 10 nM): 164 ± 16 platelet activation units | Ultegra Analyzer ([4]; drug 100 nM): 160 ± 29 platelet activation units | Ultegra Analyzer ([4]; drug 1 μM): 129 ± 26 platelet activation units | Ultegra Analyzer ([4]; drug 10 μM): 130 ± 31 platelet activation units | Ultegra Analyzer ([4]; drug 100 μM): 152 ± 19 platelet activation units | Expression of lysosome associated membrane protein -1 (LAMP-1, CD107a) ([5]; drug 10 nM): 9.1 ± 3.8 log MFI | Expression of lysosome associated membrane protein -1 (LAMP-1, CD107a) ([5]; drug 100 nM): 8.9 ± 2.7 log MFI | Expression of lysosome associated membrane protein -1 (LAMP-1, CD107a) ([5]; drug 1 μM): 9.4 ± 3.9 log MFI | Expression of lysosome associated membrane protein -1 (LAMP-1, CD107a) ([5]; drug 10 μM): 6.5 ± 3.2 log MFI | Expression of lysosome associated membrane protein -1 (LAMP-1, CD107a) ([5]; drug 100 μM): 10.1 ± 4.5 log MFI | Expression of platelet glycoprotein IIb/IIIa antigen (GPIIb, CD41) ([6]; drug 10 nM): 531.2 ± 102.5 log MFI | Expression of platelet glycoprotein IIb/IIIa antigen (GPIIb, CD41) ([6]; drug 100 nM): 502.9 ± 112.7 log MFI | Expression of platelet glycoprotein IIb/IIIa antigen (GPIIb, CD41) ([6]; drug 1 μM): 498.2 ± 94.5 log MFI | Expression of platelet glycoprotein IIb/IIIa antigen (GPIIb, CD41) ([6]; drug 10 μM): 506.7 ± 100.1 log MFI | Expression of platelet glycoprotein IIb/IIIa antigen (GPIIb, CD41) ([6]; drug 100 μM): 455.2 ± 99.6 log MFI | Effect on expression of GP IIb/IIIa (CD 41) (in words) ([6]; whole blood flow cytometry): decreased expression of CD41 only at a high dose | PFA-100 closure time with the epinephrine/collagen cartridge ([7]; drug 10 nM): 187 ± 30 s | PFA-100 closure time with the epinephrine/collagen cartridge ([7]; drug 100 nM): 209 ± 21 s | PFA-100 closure time with the epinephrine/collagen cartridge ([7]; drug 1 μM): 268 ± 19 s | PFA-100 closure time with the epinephrine/collagen cartridge ([7]; drug 10 μM): 278 ± 20 s | PFA-100 closure time with the epinephrine/collagen cartridge ([7]; drug 100 μM): 200 ± 27 s | Effect on expression of vitronectin receptors (in words) [8]: moderately reduced | Expression of glycoprotein Ib (GPIb, CD42b) ([9]; drug 10 nM): 256.4 ± 31.4 log MFI | Expression of glycoprotein Ib (GPIb, CD42b) ([9]; drug 100 nM): 248.7 ± 20.9 log MFI | Expression of glycoprotein Ib (GPIb, CD42b) ([9]; drug 1 μM): 264.8 ± 18.2 log MFI | Expression of glycoprotein Ib (GPIb, CD42b) ([9]; drug 10 μM): 244.3 ± 46.9 log MFI | Expression of glycoprotein Ib (GPIb, CD42b) ([9]; drug 100 μM): 255.9 ± 19.7 log MFI | Effect on GP Ib (CD42) (in words) ([9]; whole blood flow cytometry): not associated with any effect | Formation of platelet-leukocyte microparticles (CD151 + CD14) ([10]; drug 10 nM): 91.2 ± 20.5 log MFI | Formation of platelet-leukocyte microparticles (CD151 + CD14) ([10]; drug 100 nM): 88.4 ± 21.9 log MFI | Formation of platelet-leukocyte microparticles (CD151 + CD14) ([10]; drug 1 μM): 93.5 ± 23.8 log MFI | Formation of platelet-leukocyte microparticles (CD151 + CD14) ([10]; drug 10 μM): 96.5 ± 18.7 log MFI | Formation of platelet-leukocyte microparticles (CD151 + CD14) ([10]; drug 100 μM): 90.5 ± 19.2 log MFI | Effect on platelet-leukocyte microparticles (CD151+14) (in words) ([10]; whole blood flow cytometry): not associated with any effect
